Measured values from patent US11292767B2, “Heterocyclic inhibitors of MCT4” (Vettore, LLC, priority 2016, dated 2022).

What was measured:
[1] = Pharmacokinetic assay in rat (IV 3 mg/kg, PO 10 mg/kg); type: in vivo; conditions: male, Sprague-Dawley, plasma, read-out: Rat F (%)
Excerpt: (§1) Pharmacokinetic Assays in Mouse and Rat
(§2) The following are assays that may be used to evaluate the pharmacokinetic properties of Formula (I) in mouse or rat. The assays follow a common procedure recited below.
(§3) 1. […] For PO (oral gavage), DMSO/PEG400 (10:90). Formulations freshly prepared on the day of dosing or prior to dosing. Storage at room temperature.
(§4) 2. Test Species: For Mouse: Male CD1 strain, approximately 6-8 weeks in age, approximately 20-30 g. For Rat: Male Sprague-Dawley strain, approximately 6-8 weeks in age, approximately 200-300 g.
(§5) 3. Dose Level: For IV, 3 mg/kg. For PO, 10 mg/kg.
(§6) 4. Number of animals: 3 per assay.
(§7) 5. PK time points: For IV (plasma): 5 min, 15 min, 1, 2, 4, 6, 8, 24 h post dose. For PO (plasma): 15 min, 30 min, 1, 2, 4, 6, 8, 24 h post dose.
(§8) 6. Blood Sample Collection and Processing. Blood was collected (˜0.2 mL per time point) from jugular vein. Blood of each sample was transferred into plastic micro centrifuge tubes containing anticoagulant of EDTA-K2. Blood samples were centrifuged at 2,000 g for 5 minutes at 4° C. to obtain plasma.
(§9) 7. Samples Analysis: Plasma samples were analyzed using LC/MS/MS method, and pharmacokinetic parameters (half-life: t1/2; oral bioavailability: F; volume of distribution: Vss).

[2] = Metabolic stability in human liver microsomes (in vitro t1/2); type: in vitro ADME; conditions: human liver microsomes 0.5 mg/mL, 2 μM compound; for Human microsome % 60 min: % remaining at 60 min
How it was run: (§10)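 Liver microsomes (0.5 mg/mL final) were incubated with 2 μM test compound in the presence of NADPH, with aliquots taken at 0, 15, 30, 45 and 60 min. Parent remaining was quantified by LC-MS/MS. k was taken from the slope of ln(% remaining) versus time, and t1/2 = −0.693/k.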

CFA-induced arthritis [3] = assay: Adjuvant-induced arthritis model in rat: Mechanical Allodynia test (MA); type: in vivo; conditions: SD rat, PO 3 days post CFA, compared to dexamethasone
CFA-induced arthritis [4] = assay: Adjuvant-induced arthritis model in rat: Difference of Weight Bearing test (DWB); type: in vivo; conditions: SD rat, PO 3 days post CFA, compared to dexamethasone
[5] = Metabolic stability in rat liver microsomes (in vitro t1/2); type: in vitro ADME; conditions: rat liver microsomes 0.5 mg/mL, 2 μM compound; for Rat microsome % 60 min: % remaining at 60 min; for Rat microsome t1/2, min: in vitro t1/2
How it was run: as §10

[6] = Metabolic stability in mouse liver microsomes (in vitro t1/2); type: in vitro ADME; conditions: mouse liver microsomes 0.5 mg/mL, 2 μM compound; for Mouse microsome % 60 min: % remaining at 60 min; for Mouse microsome t1/2, min: in vitro t1/2
How it was run: as §10

[7] = Pharmacokinetic assay in mouse (IV 3 mg/kg, PO 10 mg/kg); type: in vivo; conditions: male, CD1, mouse, plasma, read-out: Mouse F (%)
Excerpt: as §1, §2, §3, §4, §5, §6, §7, §8, §9

MCT1 = MCT1 (Homo sapiens (Human), UniProt P53985); assay: Assay 4: MCT1-mediated lactate transport in BT20 breast cancer cells; type: cell-based
MCT1, sequence (P53985 whole entry): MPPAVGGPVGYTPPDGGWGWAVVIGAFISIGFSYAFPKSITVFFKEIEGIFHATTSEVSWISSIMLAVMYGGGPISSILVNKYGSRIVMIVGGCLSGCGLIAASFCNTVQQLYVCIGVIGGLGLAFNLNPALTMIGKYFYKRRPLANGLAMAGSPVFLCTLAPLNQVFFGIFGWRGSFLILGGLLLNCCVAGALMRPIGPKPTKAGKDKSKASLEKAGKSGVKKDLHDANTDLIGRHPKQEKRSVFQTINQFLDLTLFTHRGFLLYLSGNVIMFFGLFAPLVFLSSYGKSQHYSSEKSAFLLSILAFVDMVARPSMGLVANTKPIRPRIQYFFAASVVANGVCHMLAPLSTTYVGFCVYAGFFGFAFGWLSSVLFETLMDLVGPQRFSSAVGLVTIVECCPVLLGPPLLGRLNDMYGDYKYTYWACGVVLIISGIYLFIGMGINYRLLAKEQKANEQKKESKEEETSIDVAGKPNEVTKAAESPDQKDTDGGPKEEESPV
MCT1, sequence (P35613 140-385 partner): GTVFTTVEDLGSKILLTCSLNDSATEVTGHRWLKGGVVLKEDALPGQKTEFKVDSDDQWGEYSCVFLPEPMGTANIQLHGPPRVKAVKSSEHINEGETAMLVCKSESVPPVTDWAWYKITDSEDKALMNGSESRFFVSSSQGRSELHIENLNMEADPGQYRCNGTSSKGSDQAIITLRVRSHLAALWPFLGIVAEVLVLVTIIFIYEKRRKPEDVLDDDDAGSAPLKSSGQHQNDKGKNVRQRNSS
Protocol: Preparing BCECF-Loaded Cells
10 µL of a 30 mM DMSO stock of BCECF-AM ester (Life Technologies) is added and the cells are incubated at 37° C. for 5 min. The cells are pelleted (300 g, 5 min), washed once with 1 mL Tyrode's Solution, pH 7.4, re-pelleted (300 g, 5 min), and resuspended in 1 mL Tyrode's Solution, pH 7.4.
Assay 4: MCT1-Mediated Lactate Transport in BT20 Breast Cancer Cells.
Preparation of BCECF loaded cells are as described for Assay 1. Lactate transport assay is as described for Assay 1, except 10 mM L-lactate (rather than 50 mM) is added.

Compound | bioavailability [1] [%] | Human microsome % 60 min [2] [%] | Mechanical Allodynia (Von Frey), Minimal Efficacious Dose (CFA-induced arthritis [3]) [mg/kg] | Difference in Weight Bearing, Minimal Efficacious Dose (CFA-induced arthritis [4]) [mg/kg] | Rat microsome % 60 min [5] [%] | Mouse microsome % 60 min [6] [%] | bioavailability [7] [%] | IC50 (MCT1; lactate transport (Table 26)) [nM] | IC50 (MCT1; lactate transport (Table 27)) [nM] | Rat microsome t1/2, min [5] | Mouse microsome t1/2, min [6] | Human microsome t1/2, min ([2]; in vitro t1/2)
CC(C)(OCc1cc(-c2cccc(OC3CC3)c2)n(-c2ccccc2N2CCC2)n1)C(=O)O [Example 232, 2-([1-[2-(Azetidin-1-yl)phenyl]-5-(3-cyclopropoxyphenyl)-1H-pyrazol-3-yl]-methoxy)-2-methylpropanoic acid] | 52 | 65 | 1 | 1 | 50 | 59 | 56 | – | – | – | – | –
CCOc1ccccc1Cn1nc(COC(C)(C)C(=O)O)cc1-c1cc(OC)cc(OC)c1 [Example 211, 2-([5-(3,5-Dimethoxyphenyl)-1-[(2-ethoxyphenyl)methyl]-1H-pyrazol-3-yl]-methoxy)-2-methylpropanoic acid] | 55 | 78 | – | – | 57 | 43 | 57 | – | – | – | – | –
COc1cccc(-c2cc(COC(C)(C)C(=O)O)nn2Cc2ccccc2Cl)c1 [Example 14, 2-([1-[(2-Chlorophenyl)methyl]-5-(3-methoxyphenyl)1H-pyrazol-3-yl]methoxy)-2-methylpropanoic acid] | 64 | 82 | 30 | 30 | – | 95 | 100 | > 100000 | > 100000 | – | – | –
CCn1ncc2ccc(-c3cc(CO[C@](C)(CC)C(=O)O)nn3-c3ccccc3N3CCCC3)cc21 [Example 268, (2R)-2-([5-(1-ethyl-1H-indazol-6-yl)-1-[2-(pyrrolidin-1-yl)phenyl]-1H-pyrazol-3-yl]methoxy)-2-methylbutanoic acid] | 57 | – | 1 | 1 | – | – | 77 | – | – | – | – | –
CC(C)COc1cccc(-c2cc(COC(C)(C)C(=O)O)nn2-c2cccc3cnn(C)c23)c1 [Example 170, 2-methyl-2-([1-(1-methyl-1H-indazol-7-yl)-5-[3-(2-methylpropoxy)phenyl]-1H-pyrazol-3-yl]methoxy]propanoic acid] | 18 | 87 | 3 | 3 | 95 | 99 | 100 | – | – | ∞ | ∞ | –
CCn1ncc2ccc(-c3cc(CO[C@](C)(CC)C(=O)O)nn3-c3ccccc3N3CCC3)cc21 [Example 269, (2R)-2-([1-[2-(Azetidin-1-yl)phenyl]-5-(1-ethyl-1H-indazol-6-yl)-1H-pyrazol-3-yl]methoxy)-2-methylbutanoic acid] | – | – | – | – | – | – | 100 | – | – | – | – | –
CCCn1ncc2ccc(-c3cc(CO[C@](C)(CC)C(=O)O)nn3-c3ccccc3N3CCC3)cc21 [Example 267, (2R)-2-([1-[2-(azetidin-1-yl)phenyl]-5-(1-propyl-1H-indazol-6-yl)-1H-pyrazol-3-yl]methoxy)-2-methylbutanoic acid] | 54 | – | 3 | 3 | – | – | 64 | – | – | – | – | –
CCn1ncc2ccc(-c3cc(CO[C@@](C)(CC)C(=O)O)nn3Cc3ccccc3Cl)cc21 [Example 257, (S)-2-((1-(2-chlorobenzyl)-5-(1-ethyl-1H-indazol-6-yl)-1H-pyrazol-3-yl)methoxy)-2-methylbutanoic acid] | 76 | 96 | – | – | – | – | 76 | – | – | ∞ | ∞ | –
CCn1ncc2ccc(-c3cc(COC(C)(C)C(=O)O)nn3Cc3ccccc3Cl)cc21 [Example 150, 2-([1-[(2-Chlorophenyl)methyl]-5-(1-ethyl-1H-indazol-6-yl)-1H-pyrazol-3-yl]-methoxy)-2-methylpropanoic Acid] | 43 | 90 | 10 | 10 | 98 | – | 89 | – | – | – | ∞ | –
Cn1ncc2cccc(-n3nc(COC(C)(C)C(=O)O)cc3-c3cccc(OCC(C)(C)C)c3)c21 [Example 167, 2-([5-[3-(2,2-dimethylpropoxy)phenyl]-1-(1-methyl-1H-indazol-7-yl)-1H-pyrazol-3-yl]methoxy)-2-methyl-propanoic acid] | 72 | 84 | – | – | 72 | 97 | 24 | – | – | – | – | –
CC[C@@](C)(OCc1cc(-c2cccc(OC3CC3)c2)n(-c2ccccc2N2CCC2)n1)C(=O)O [Example 266] | 100 | – | 3 | 3 | – | – | 100 | – | – | – | – | –
CCn1ncc2ccc(-c3cc(COC(C)(C)C(=O)O)nn3-c3ccccc3N3CCCC3)cc21 [Example 229, 2-([5-(1-ethyl-1H-indazol-6-yl)-1-[2-(pyrrolidin-1-yl)phenyl]-1H-pyrazol-3-yl]methoxy)-2-methylpropanoic acid] | 100 | 64 | 3 | 3 | 69 | 81 | 100 | – | – | – | – | –
CC(C)(OCc1cc(-c2cccc(OC3CC3)c2)n(-c2ccccc2Cl)n1)C(=O)O [Example 110, 2-([1-(2-Chlorophenyl)-5-(3-cyclo-propoxyphenyl)-1H-pyrazol-3-yl]methoxy)-2-methylpropanoic acid] | 84 | 99 | 10 | 10 | 94 | 86 | 100 | – | – | – | – | –
CCn1ncc2ccc(-c3cc(CO[C@](C)(CC)C(=O)O)nn3Cc3ccccc3Cl)cc21 [Example 220, (2R)-2-([1-[(2-chlorophenyl)methyl]-5-(1-ethyl-1H-indazol-6-yl)-1H-pyrazol-3-yl]methoxy)-2-methylbutanoic acid] | 29 | – | 3 | 3 | 86 | – | 100 | – | – | – | – | ∞
CC(C)(OCc1cc(-c2cccc(OC3CCC3)c2)n(-c2ccccc2N2CCC2)n1)C(=O)O [Example 260, 2-([1-[2-(Azetidin-1-yl)phenyl]-5-(3-cyclobutoxyphenyl)-1H-pyrazol-3-yl]methoxy)-2-methylpropanoic acid] | 85 | – | 1 | 1 | – | – | 86 | – | – | – | – | –
CCn1ncc2ccc(-c3cc(COC(C)(C)C(=O)O)nn3-c3ccccc3N3CCC3)cc21 [Example 228, 2-([1-[2-(Azetidin-1-yl)phenyl]-5-(1-ethyl-1H-indazol-6-yl)-1H-pyrazol-3-yl]methoxy)-2-methylpropanoic acid] | 94 | 71 | – | – | 91 | 96 | 100 | – | – | – | – | –
